Experimental data from patent publication US11149031B2, “Substituted N-(3-fluoropropyl)-pyrrolidine compounds, processes for their preparation and therapeutic uses thereof” (SANOFI, priority 2016, dated 2021).
pIC50: −log10 of the molar value. Like-named read-outs stand apart in the source and are kept apart here.

How the values were obtained:
[1] = biological target: His6-ERα298-554 WT (ERα ligand-binding domain) (Homo sapiens (Human), UniProt P03372); assay: Test A: biochemical antagonist activity, LanthaScreen TR-FRET ERα coactivator assay, WT; conditions: read-out: Antagonism WT IC50
Chain of His6-ERα298-554 WT (ERα ligand-binding domain) (P03372 298-554): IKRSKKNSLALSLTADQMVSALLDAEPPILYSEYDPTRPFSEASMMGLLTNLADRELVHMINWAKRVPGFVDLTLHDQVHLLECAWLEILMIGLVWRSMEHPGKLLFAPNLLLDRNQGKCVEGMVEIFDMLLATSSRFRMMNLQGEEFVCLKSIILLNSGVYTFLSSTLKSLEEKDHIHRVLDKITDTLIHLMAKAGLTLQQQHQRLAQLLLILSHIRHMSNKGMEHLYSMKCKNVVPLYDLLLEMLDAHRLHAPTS
How it was run: (§1)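 Compounds were added to receptor LBD (0.5 nM), terbium-labelled His6 antibody (0.5 nM), PGC1a coactivator peptide (250 nM) and estradiol at 3 nM or 10 nM. After incubating overnight at room temperature, the 520:495 nm ratio gave IC50 values by four-parameter logistic regression.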

[2] = biological target: His6-ERα298-554 D538G mutant (ERα ligand-binding domain) (Homo sapiens (Human), UniProt P03372, D538G); assay: Test A: biochemical antagonist activity, LanthaScreen TR-FRET ERα coactivator assay, D538G mutant; conditions: read-out: Antagonism D538G IC50
Chain of His6-ERα298-554 D538G mutant (ERα ligand-binding domain) (P03372 298-554 D538G): as the sequence (P03372 298-554) above, with D241G counted along it
How it was run: as §1

[3] = biological target: His6-ERα298-554 Y537S mutant (ERα ligand-binding domain) (Homo sapiens (Human), UniProt P03372, Y537S); assay: Test A: biochemical antagonist activity, LanthaScreen TR-FRET ERα coactivator assay, Y537S mutant; conditions: read-out: Antagonism Y537S IC50
Chain of His6-ERα298-554 Y537S mutant (ERα ligand-binding domain) (P03372 298-554 Y537S): as the sequence (P03372 298-554) above, with Y240S counted along it
How it was run: as §1

[4] = tested on: MCF7 cells (breast tumor cells) WT; assay: Test B: cell proliferation/viability assay (CellTiter-Glo) on MCF7 WT; type: cell-based; conditions: 7 days of compound exposure
How it was run: (§2)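 MCF7 WT / ER mutant lines (estradiol-independent, Tyr537Ser or Asp538Gly); stripped-serum, phenol red-free MEM; 9 pt 1:5 dil, 3-0.000001 μM final; 7 d; CellTiter-Glo RLU → % viability vs untreated, background-subtracted.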

[5] = tested on: MCF7 cells expressing mutant estrogen receptor Tyr 537 Ser; assay: Test B: cell proliferation/viability assay (CellTiter-Glo) on MCF7 Tyr 537 Ser mutant; type: cell-based; conditions: MCF7 cells expressing ER Tyr 537 Ser mutant, 7 days of compound exposure, read-out: proliferation MCF7 Y537S IC50
How it was run: as §2

[6] = tested on: MCF7 cells expressing mutant estrogen receptor Asp 538 Gly; assay: Test B: cell proliferation/viability assay (CellTiter-Glo) on MCF7 Asp 538 Gly mutant; type: cell-based; conditions: MCF7 cells expressing ER Asp 538 Gly mutant, 7 days of compound exposure, read-out: proliferation MCF7 D538G IC50
How it was run: as §2

ERα in MCF7 cells = ERα in MCF7 cells (Homo sapiens (Human), UniProt P03372); assay: Test C: estrogen receptor degradation activity, ERα in cell western assay in MCF7 cells; type: cell-based; conditions: for DC50: 4 hours post compound addition, ERα in cell western, read-out: Degradation IC50; for % Degradation at 3 μM: 4 hours, relative to fulvestrant
Chain of ERα in MCF7 cells (P03372 whole entry): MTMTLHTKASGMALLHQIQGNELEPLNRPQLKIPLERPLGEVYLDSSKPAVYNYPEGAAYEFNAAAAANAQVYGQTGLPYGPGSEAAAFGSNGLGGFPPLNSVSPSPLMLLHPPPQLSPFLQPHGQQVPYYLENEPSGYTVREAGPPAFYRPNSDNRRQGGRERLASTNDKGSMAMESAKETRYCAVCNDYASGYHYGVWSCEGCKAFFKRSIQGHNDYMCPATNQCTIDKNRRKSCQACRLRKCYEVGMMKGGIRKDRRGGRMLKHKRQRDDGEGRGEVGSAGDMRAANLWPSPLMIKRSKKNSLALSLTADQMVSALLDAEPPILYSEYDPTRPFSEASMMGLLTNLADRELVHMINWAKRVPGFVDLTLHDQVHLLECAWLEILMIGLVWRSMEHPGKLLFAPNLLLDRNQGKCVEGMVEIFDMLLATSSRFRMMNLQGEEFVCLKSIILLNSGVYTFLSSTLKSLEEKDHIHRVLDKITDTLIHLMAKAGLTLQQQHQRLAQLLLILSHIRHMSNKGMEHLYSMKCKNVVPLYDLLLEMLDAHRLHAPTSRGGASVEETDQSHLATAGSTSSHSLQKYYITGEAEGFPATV
How it was run: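 Cells seeded in stripped-serum medium are dosed the next day across a nine-concentration series (3 down to 0.000018 μM). Four hours later they are fixed, blocked, probed overnight with anti-ERα antibody, then labelled with an Alexa 488 secondary and a DNA dye before plate scanning.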

[7] = asterisk (*): protocol using 10 nM estradiol

Oc1ccc2c(c1)CCCC(c1ccc(OC(F)(F)F)cc1F)=C2c1ccc(N[C@H]2CCN(CCCF)C2)cc1 [Example 88, 5-[4-[[(3S)-1-(3-fluoropropyl)pyrrolidin-3-yl]amino]phenyl]-6-[2-fluoro-4-(trifluoromethoxy)phenyl]-8,9-dihydro-7H-benzo[7]annulen-2-ol]
pIC50 [1, 7]: 7.92 | pIC50 [2, 7]: 6.53 | pIC50 [3, 7]: 6.80 | pIC50 ([4]; Homo sapiens, MCF7, 168 h): 9.52 | pIC50 ([5]; Homo sapiens, MCF7, 168 h): 8.52 | pIC50 ([6]; Homo sapiens, MCF7, 168 h): 9.22 | DC50 (ERα in MCF7 cells): 0.2 nM | % Degradation at 3 μM (ERα in MCF7 cells): 88%

Cc1ccc(C2=C(c3ccc(O[C@H]4CCN(CCCF)C4)cc3)c3ccc(O)cc3SC2)c(Cl)n1 [Example 56, 3-(2-chloro-6-methyl-3-pyridyl)-4-[4-[(3S)-1-(3-fluoropropyl)pyrrolidin-3-yl]oxyphenyl]-2H-thiochromen-7-ol]
pIC50 [1, 7]: 7.43 | pIC50 [2, 7]: 6.14 | pIC50 [3, 7]: 6.45 | pIC50 ([4]; Homo sapiens, MCF7, 168 h): 9.22 | pIC50 ([5]; Homo sapiens, MCF7, 168 h): 7.85 | pIC50 ([6]; Homo sapiens, MCF7, 168 h): 9.15 | DC50 (ERα in MCF7 cells): 0.2 nM | % Degradation at 3 μM (ERα in MCF7 cells): 86%

Oc1ccc2c(c1)C(c1ccc(O[C@H]3CCN(CCCF)C3)cc1)=C(c1ccc(OC(F)(F)F)cc1F)CC2 [Example 10, 8-[4-[(3S)-1-(3-fluoropropyl)pyrrolidin-3-yl]oxyphenyl]-7-[2-fluoro-4-(trifluoromethoxy)phenyl]-5,6-dihydronaphthalen-2-ol]
pIC50 [1, 7]: 5.90 | pIC50 [2, 7]: < 5.40 | pIC50 [3, 7]: < 5.40 | pIC50 ([4]; Homo sapiens, MCF7, 168 h): 7.07 | pIC50 ([5]; Homo sapiens, MCF7, 168 h): < 6.00 | pIC50 ([6]; Homo sapiens, MCF7, 168 h): 7.54 | DC50 (ERα in MCF7 cells): 15 nM | % Degradation at 3 μM (ERα in MCF7 cells): 78%

[O-][S+]1CCC(c2ccc(OC(F)(F)F)cc2)=C(c2ccc(O[C@H]3CCN(CCCF)C3)cc2)c2ccc(O)cc21 (single isomer, unassigned) [Example 227]
pIC50 [1, 7]: 6.41 | pIC50 [2, 7]: 5.48 | pIC50 [3, 7]: 5.46 | pIC50 [4]: 8.22 | pIC50 [5]: 6.87 | pIC50 [6]: 8.05 | DC50 (ERα in MCF7 cells): 4 nM | % Degradation at 3 μM (ERα in MCF7 cells): 90%

CCOc1ccc(C2=C(c3ccc(O[C@H]4CCN(CCCF)C4)cc3)c3ccc(O)cc3SC2)c(F)n1 [Example 27, 3-(6-ethoxy-2-fluoro-3-pyridyl)-4-[4-[(3S)-1-(3-fluoropropyl)pyrrolidin-3-yl]oxyphenyl]-2H-thiochromen-7-ol]
pIC50 [1, 7]: 8.70 | pIC50 [2, 7]: 7.42 | pIC50 [3, 7]: 7.68 | pIC50 ([4]; Homo sapiens, MCF7, 168 h): 9.40 | pIC50 ([5]; Homo sapiens, MCF7, 168 h): 8.22 | pIC50 ([6]; Homo sapiens, MCF7, 168 h): 8.70 | DC50 (ERα in MCF7 cells): 0.6 nM | % Degradation at 3 μM (ERα in MCF7 cells): 94%

Nc1ccc(C2=C(c3ccc(O[C@H]4CCN(CCCF)C4)cc3)c3ccc(O)cc3SC2)c(F)n1 [Example 72, 3-(6-amino-2-fluoro-3-pyridyl)-4-[4-[(3S)-1-(3-fluoropropyl)pyrrolidin-3-yl]oxyphenyl]-2H-thiochromen-7-ol]
pIC50 [1, 7]: 7.96 | pIC50 [2, 7]: 6.69 | pIC50 [3, 7]: 6.97 | pIC50 ([4]; Homo sapiens, MCF7, 168 h): 8.70 | pIC50 ([5]; Homo sapiens, MCF7, 168 h): 9.00 | pIC50 ([6]; Homo sapiens, MCF7, 168 h): 9.30 | DC50 (ERα in MCF7 cells): 0.2 nM | % Degradation at 3 μM (ERα in MCF7 cells): 91%

Oc1ccc2c(c1Cl)OCCC(c1cccc3[nH]ccc13)=C2c1ccc(O[C@H]2CCN(CCCF)C2)cc1 [Example 124, 9-chloro-5-[4-[(3S)-1-(3-fluoropropyl)pyrrolidin-3-yl]oxyphenyl]-4-(1H-indol-4-yl)-2,3-dihydro-1-benzoxepin-8-ol]
pIC50 ([1]; protocol with 3 nM estradiol): 7.66 | pIC50 ([2]; protocol with 3 nM estradiol): 6.07 | pIC50 ([3]; protocol with 3 nM estradiol): 5.91 | pIC50 ([4]; Homo sapiens, MCF7, 168 h): 8.10 | pIC50 ([5]; Homo sapiens, MCF7, 168 h): 6.78 | pIC50 ([6]; Homo sapiens, MCF7, 168 h): 7.48 | DC50 (ERα in MCF7 cells): 5 nM | % Degradation at 3 μM (ERα in MCF7 cells): 76%

Oc1ccc2c(c1)SCC(c1ccc3c(c1)OCCO3)=C2c1ccc(O[C@H]2CCN(CCCF)C2)cc1 [Example 28, 3-(2,3-dihydro-1,4-benzodioxin-6-yl)-4-[4-[(3S)-1-(3-fluoropropyl)pyrrolidin-3-yl]oxyphenyl]-2H-thiochromen-7-ol]
pIC50 [1, 7]: 8.40 | pIC50 [2, 7]: 7.17 | pIC50 [3, 7]: 7.39 | pIC50 ([4]; Homo sapiens, MCF7, 168 h): 9.15 | pIC50 ([5]; Homo sapiens, MCF7, 168 h): 7.96 | pIC50 ([6]; Homo sapiens, MCF7, 168 h): 8.70 | DC50 (ERα in MCF7 cells): 0.3 nM | % Degradation at 3 μM (ERα in MCF7 cells): 80%

COc1ccc(C2=C(c3ccc(O[C@H]4CCN(CCCF)C4)cc3)c3ccc(O)cc3SC2)cc1F [Example 23, 3-(3-fluoro-4-methoxy-phenyl)-4-[4-[(3S)-1-(3-fluoropropyl)pyrrolidin-3-yl]oxyphenyl]-2H-thiochromen-7-ol]
pIC50 [1, 7]: 7.30 | pIC50 [2, 7]: 6.10 | pIC50 [3, 7]: 6.17 | pIC50 ([4]; Homo sapiens, MCF7, 168 h): 8.15 | pIC50 ([5]; Homo sapiens, MCF7, 168 h): < 6.00 | pIC50 ([6]; Homo sapiens, MCF7, 168 h): 7.85 | DC50 (ERα in MCF7 cells): 0.3 nM | % Degradation at 3 μM (ERα in MCF7 cells): 93%

Oc1ccc2c(c1)CCCC(c1ccc(OC(F)(F)F)cc1)=C2c1ccc(N[C@H]2CCN(CCCF)C2)cc1 [Example 87, 5-[4-[[(3S)-1-(3-fluoropropyl)pyrrolidin-3-yl]amino]phenyl]-6-[4-(trifluoromethoxy)phenyl]-8,9-dihydro-7H-benzo[7]annulen-2-ol]
pIC50 [1, 7]: 7.64 | pIC50 [2, 7]: 6.25 | pIC50 [3, 7]: 6.53 | pIC50 ([4]; Homo sapiens, MCF7, 168 h): 9.70 | pIC50 ([5]; Homo sapiens, MCF7, 168 h): 8.52 | pIC50 ([6]; Homo sapiens, MCF7, 168 h): 9.00 | DC50 (ERα in MCF7 cells): 0.4 nM | % Degradation at 3 μM (ERα in MCF7 cells): 83%

Oc1ccc2c(c1)CCCC(c1ccc(Cl)cc1Cl)=C2c1ccc(N[C@H]2CCN(CCCF)C2)cc1 [Example 85, 6-(2,4-dichlorophenyl)-5-[4-[[(3S)-1-(3-fluoropropyl)pyrrolidin-3-yl]amino]phenyl]-8,9-dihydro-7H-benzo[7]annulen-2-ol]
pIC50 [1, 7]: 9.00 | pIC50 [2, 7]: 7.68 | pIC50 [3, 7]: 7.82 | pIC50 ([4]; Homo sapiens, MCF7, 168 h): 9.40 | pIC50 ([5]; Homo sapiens, MCF7, 168 h): 8.15 | pIC50 ([6]; Homo sapiens, MCF7, 168 h): 9.15 | DC50 (ERα in MCF7 cells): 1 nM | % Degradation at 3 μM (ERα in MCF7 cells): 86%

Oc1ccc2c(c1)SCCC(c1ccc(SC(F)(F)F)cc1)=C2c1ccc(O[C@H]2CCN(CCCF)C2)cc1 [Example 222, 5-[4-[(3S)-1-(3-fluoropropyl)pyrrolidin-3-yl]oxyphenyl]-4-[4-(trifluoromethylsulfanyl)phenyl]-2,3-dihydro-1-benzothiepin-8-ol]
pIC50 [1, 7]: 7.74 | pIC50 [2, 7]: 6.43 | pIC50 [3, 7]: 6.62 | pIC50 ([4]; Homo sapiens, MCF7, 168 h): 8.40 | pIC50 ([5]; Homo sapiens, MCF7, 168 h): 9.00 | pIC50 ([6]; Homo sapiens, MCF7, 168 h): 9.40 | DC50 (ERα in MCF7 cells): 1 nM | % Degradation at 3 μM (ERα in MCF7 cells): 80%

O=C1COc2ccc(C3=C(c4ccc(O[C@H]5CCN(CCCF)C5)cc4)c4ccc(O)cc4SC3)cc2N1 [Example 38, 6-[4-[4-[(3S)-1-(3-fluoropropyl)pyrrolidin-3-yl]oxyphenyl]-7-hydroxy-2H-thiochromen-3-yl]-4H-1,4-benzoxazin-3-one]
pIC50 [1, 7]: 6.22 | pIC50 [2, 7]: < 5.40 | pIC50 [3, 7]: 5.43 | pIC50 ([4]; Homo sapiens, MCF7, 168 h): 7.92 | pIC50 ([5]; Homo sapiens, MCF7, 168 h): < 6.00 | pIC50 ([6]; Homo sapiens, MCF7, 168 h): 7.80 | DC50 (ERα in MCF7 cells): 12 nM | % Degradation at 3 μM (ERα in MCF7 cells): 86%
